ChEMBL document CHEMBL5465560, “Selectivity Literature for EUbOPEN Chemogenomic Library” (2024)

Tests used:
[1] = target: T1, Serine/threonine-protein kinase 3 (Homo sapiens) (UniProt Q13188); experiment: Selectivity interaction (Millipore kinase profiler) EUB0000124b STK3; conditions: at 10 µM
T1 sequence (whole entry): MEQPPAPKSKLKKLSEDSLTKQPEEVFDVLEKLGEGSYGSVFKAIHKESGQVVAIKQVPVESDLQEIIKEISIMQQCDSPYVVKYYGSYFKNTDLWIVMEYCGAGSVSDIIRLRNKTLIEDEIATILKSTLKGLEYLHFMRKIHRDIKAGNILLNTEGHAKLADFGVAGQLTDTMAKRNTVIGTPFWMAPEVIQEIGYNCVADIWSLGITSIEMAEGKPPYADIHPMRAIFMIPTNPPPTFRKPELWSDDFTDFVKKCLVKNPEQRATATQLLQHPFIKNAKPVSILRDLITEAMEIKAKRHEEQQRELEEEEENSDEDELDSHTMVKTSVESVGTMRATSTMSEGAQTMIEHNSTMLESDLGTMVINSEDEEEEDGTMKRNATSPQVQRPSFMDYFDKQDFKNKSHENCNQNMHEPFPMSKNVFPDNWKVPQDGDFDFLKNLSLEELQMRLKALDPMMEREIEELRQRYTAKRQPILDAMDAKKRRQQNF

Aurora kinase B = Aurora kinase B (Homo sapiens, UniProt Q96GD4); experiment: Selectivity interaction (Kinase panel (literature)) EUB0001199aCl AURKB; conditions: at 1 µM
[2] = target: T2, Ephrin type-A receptor 8 (Homo sapiens) (UniProt P29322); experiment: Selectivity interaction (KinomeScan (DiscoverX)) EUB0000595a EPHA8; conditions: at 10 µM
T2 sequence (whole entry): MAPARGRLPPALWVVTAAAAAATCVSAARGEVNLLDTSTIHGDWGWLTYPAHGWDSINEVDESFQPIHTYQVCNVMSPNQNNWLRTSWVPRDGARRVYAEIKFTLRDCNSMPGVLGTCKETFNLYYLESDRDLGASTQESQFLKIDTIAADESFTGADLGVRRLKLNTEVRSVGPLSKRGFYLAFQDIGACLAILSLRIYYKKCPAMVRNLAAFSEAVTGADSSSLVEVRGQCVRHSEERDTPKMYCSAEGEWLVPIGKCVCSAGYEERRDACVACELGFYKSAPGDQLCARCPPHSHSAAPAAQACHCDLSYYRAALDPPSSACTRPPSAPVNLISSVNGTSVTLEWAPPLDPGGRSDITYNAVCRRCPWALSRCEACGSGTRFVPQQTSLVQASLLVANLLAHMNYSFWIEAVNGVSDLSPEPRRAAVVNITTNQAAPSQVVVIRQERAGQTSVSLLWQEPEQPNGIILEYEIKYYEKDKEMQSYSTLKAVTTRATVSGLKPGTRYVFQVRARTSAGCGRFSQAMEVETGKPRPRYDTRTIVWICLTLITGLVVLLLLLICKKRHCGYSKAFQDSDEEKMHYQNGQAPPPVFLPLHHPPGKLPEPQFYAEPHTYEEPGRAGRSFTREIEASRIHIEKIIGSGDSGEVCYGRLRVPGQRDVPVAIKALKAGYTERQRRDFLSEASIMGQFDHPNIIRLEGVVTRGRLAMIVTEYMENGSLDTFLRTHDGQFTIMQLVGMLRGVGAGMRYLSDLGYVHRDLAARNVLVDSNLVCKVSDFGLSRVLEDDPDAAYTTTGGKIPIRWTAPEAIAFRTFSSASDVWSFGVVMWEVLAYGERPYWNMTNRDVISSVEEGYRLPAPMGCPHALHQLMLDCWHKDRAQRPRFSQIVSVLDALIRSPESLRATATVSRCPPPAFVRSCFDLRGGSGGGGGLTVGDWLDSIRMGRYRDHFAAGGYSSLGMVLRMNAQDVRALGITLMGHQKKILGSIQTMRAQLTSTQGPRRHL

[3] = target: T3, Membrane-associated tyrosine- and threonine-specific cdc2-inhibitory kinase (Homo sapiens) (UniProt Q99640); experiment: Selectivity interaction (KinomeScan (DiscoverX)) EUB0000045b PKMYT1
T3 sequence (whole entry): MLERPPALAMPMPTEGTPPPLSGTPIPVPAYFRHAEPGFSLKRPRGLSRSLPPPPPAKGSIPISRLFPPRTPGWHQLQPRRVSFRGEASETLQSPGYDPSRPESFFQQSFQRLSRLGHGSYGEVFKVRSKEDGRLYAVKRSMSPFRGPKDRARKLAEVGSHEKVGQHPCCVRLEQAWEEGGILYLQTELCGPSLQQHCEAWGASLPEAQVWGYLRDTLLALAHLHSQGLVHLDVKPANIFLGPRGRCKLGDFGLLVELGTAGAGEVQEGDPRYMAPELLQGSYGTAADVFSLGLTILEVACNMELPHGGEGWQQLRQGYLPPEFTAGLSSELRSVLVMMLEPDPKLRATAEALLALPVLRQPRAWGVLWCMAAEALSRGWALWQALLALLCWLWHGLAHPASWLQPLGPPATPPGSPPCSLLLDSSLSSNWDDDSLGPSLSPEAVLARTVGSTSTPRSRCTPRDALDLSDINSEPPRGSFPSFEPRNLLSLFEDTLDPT

[4] = target: Serine/threonine-protein kinase 38-like (Homo sapiens) (UniProt Q9Y2H1); experiment: Selectivity interaction (KinomeScan (DiscoverX)) EUB0000695a STK38L; conditions: at 100 nM
[5] = target: T4, Homeodomain-interacting protein kinase 4 (Homo sapiens) (UniProt Q8NE63); experiment: Selectivity interaction (SelectScreen profiling (Invitrogen)) EUB0000607a HIPK4; conditions: at 2 µM
T4 sequence (whole entry): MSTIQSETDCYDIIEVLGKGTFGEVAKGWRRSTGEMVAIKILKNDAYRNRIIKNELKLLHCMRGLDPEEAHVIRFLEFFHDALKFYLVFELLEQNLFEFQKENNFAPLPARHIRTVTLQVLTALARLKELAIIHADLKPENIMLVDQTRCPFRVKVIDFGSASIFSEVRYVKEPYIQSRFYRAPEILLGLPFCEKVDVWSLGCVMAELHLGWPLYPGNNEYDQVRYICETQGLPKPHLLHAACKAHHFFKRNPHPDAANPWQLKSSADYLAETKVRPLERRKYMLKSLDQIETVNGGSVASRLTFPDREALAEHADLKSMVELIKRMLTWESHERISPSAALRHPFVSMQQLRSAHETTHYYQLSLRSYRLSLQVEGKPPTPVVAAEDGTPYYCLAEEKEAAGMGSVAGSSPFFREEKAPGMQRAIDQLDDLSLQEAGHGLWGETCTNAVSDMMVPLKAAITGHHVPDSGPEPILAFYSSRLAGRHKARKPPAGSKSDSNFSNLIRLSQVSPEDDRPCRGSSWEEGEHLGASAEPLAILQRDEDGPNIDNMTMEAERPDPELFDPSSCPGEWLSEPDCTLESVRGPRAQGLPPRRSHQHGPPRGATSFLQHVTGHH

[6] = target: Cyclin-Y/Cyclin-dependent kinase 16 (Homo sapiens) (UniProt Q00536+Q8ND76); experiment: Selectivity interaction (LanthaScreen Eu Kinase Binding Assay) EUB0001632a CDK16; format: protein-complex assay; conditions: at 10 µM
[7] = target: Ribosomal protein S6 kinase alpha-2 (Homo sapiens) (UniProt Q15349); experiment: Selectivity interaction (Kinase panel (Z-LYTE Assay)) EUB0001632a RPS6KA2; conditions: at 10 µM
Ribosomal protein S6 kinase alpha-2 (Homo sapiens), sequence (Q15349 whole entry): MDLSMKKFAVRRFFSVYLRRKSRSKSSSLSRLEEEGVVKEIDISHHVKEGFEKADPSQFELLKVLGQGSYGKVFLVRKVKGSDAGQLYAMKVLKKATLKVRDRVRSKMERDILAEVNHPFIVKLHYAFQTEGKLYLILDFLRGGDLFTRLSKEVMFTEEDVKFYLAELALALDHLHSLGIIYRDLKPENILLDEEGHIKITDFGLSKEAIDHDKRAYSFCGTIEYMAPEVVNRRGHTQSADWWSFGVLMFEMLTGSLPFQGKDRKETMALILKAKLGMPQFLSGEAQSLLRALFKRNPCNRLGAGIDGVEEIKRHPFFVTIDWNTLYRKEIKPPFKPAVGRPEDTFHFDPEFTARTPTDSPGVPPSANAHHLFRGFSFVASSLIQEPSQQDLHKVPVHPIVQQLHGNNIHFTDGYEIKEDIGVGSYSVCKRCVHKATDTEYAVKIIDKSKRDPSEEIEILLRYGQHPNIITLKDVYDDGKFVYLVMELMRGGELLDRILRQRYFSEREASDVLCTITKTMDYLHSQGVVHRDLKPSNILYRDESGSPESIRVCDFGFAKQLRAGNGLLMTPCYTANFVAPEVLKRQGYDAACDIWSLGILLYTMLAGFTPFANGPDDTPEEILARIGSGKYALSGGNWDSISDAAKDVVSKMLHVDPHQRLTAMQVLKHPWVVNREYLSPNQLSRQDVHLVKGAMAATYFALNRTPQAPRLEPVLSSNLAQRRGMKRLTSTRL

Serine/threonine-protein kinase 38-like (Homo sapiens), sequence (Q9Y2H1 2-464 limits assumed): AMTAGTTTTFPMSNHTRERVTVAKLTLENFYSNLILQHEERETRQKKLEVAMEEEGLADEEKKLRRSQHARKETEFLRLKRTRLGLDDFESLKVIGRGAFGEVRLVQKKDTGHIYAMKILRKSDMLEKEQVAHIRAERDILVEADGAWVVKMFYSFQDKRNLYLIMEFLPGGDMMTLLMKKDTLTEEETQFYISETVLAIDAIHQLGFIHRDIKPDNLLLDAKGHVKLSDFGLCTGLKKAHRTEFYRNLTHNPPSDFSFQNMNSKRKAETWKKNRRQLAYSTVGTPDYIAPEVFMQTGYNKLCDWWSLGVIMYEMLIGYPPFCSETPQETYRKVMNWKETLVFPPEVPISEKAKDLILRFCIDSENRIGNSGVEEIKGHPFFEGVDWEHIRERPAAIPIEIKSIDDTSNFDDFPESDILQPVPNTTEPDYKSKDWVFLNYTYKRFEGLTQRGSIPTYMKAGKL
Aurora kinase B, sequence (Q96GD4 whole entry): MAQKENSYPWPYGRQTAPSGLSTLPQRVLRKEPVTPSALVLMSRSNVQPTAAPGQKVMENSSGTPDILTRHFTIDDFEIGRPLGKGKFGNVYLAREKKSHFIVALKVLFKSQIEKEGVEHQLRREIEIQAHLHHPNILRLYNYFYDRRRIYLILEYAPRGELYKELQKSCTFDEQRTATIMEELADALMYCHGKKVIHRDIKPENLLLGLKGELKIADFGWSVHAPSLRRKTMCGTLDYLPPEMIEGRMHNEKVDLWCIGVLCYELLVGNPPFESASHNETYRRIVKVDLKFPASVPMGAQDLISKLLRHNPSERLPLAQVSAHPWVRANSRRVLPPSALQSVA

CC(=O)Nc1cccc(-n2c(=O)n(C3CC3)c(=O)c3c(Nc4ccc(I)cc4F)n(C)c(=O)c(C)c32)c1
% of control [1]: 94%

CN1Cc2nccc(-c3cn(C)nc3-c3ccc(F)cc3)c2C1=O
% of inhibition (Aurora kinase B): 4%

COCC(=O)NC/C=C/c1ccc2ncnc(Nc3ccc(Oc4ccc(C)nc4)c(C)c3)c2c1 [CP-724714]
% of control [2]: 98%

C=CC(=O)Nc1cc(-n2c(=O)ccc3cnc4ccc(-c5ccc(NS(C)(=O)=O)cc5)cc4c32)ccc1C
% of control ([3]; at 1 µM): 77%
% of control ([3]; at 10 µM): 100%

Cc1cc(F)c(C(=O)Nc2cccc(-c3nncn3C(C)C)n2)cc1-n1cnc(C2CC2)c1
% of control [4]: 100%

CNC(=O)Nc1ccc(-c2nc(N3CC4CCC(C3)O4)c3cnn(C4CCC5(CC4)OCCO5)c3n2)cc1
% of inhibition [5]: 7%

Cn1cc(-n2cnc3c(NCc4nc5cc(Cl)c(Cl)cc5[nH]4)nc(N4CCOCC4)nc32)cn1
% of inhibition [6]: 15%
% of control [7]: 1.22%
